Source: PubChem BioAssay (NCI)
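Interpolation was linear, between the two tested concentrations surrounding the appropriate level; five concentrations were tested over 48 hours in 96-well plates. GI50 marks 50% less growth. TGI is the concentration that stops growth completely.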

Assays:
Assay in all cases: NCI-60 cell line screen, 48 h
[1] = tested on: SW-620 colon
[2] = tested on: UACC-257 melanoma
[3] = tested on: 786-0 renal
[4] = tested on: HL-60(TB) leukemia
[5] = tested on: NCI-H522 lung
[6] = tested on: RPMI-8226 leukemia
[7] = tested on: EKVX NSCLC
[8] = tested on: SF-268 CNS
[9] = tested on: ACHN renal
[10] = tested on: BT-549 breast

COc1ccc2cc3[n+](cc2c1OC)CCc1cc(O)c(O)cc1-3
TGI [1]: > 100 µM
TGI [2]: > 100 µM
TGI [3]: > 100 µM
TGI [4]: > 100 µM
TGI [5]: > 100 µM
TGI [6]: > 100 µM
TGI [7]: > 100 µM
TGI [8]: > 100 µM

Cc1nc2cc(N)c(F)cc2[nH]1
TGI [1]: > 100 µM
TGI [2]: > 100 µM
TGI [3]: > 100 µM
TGI [4]: > 100 µM
TGI [5]: > 100 µM
TGI [9]: > 100 µM
TGI [7]: > 100 µM
TGI [8]: > 100 µM

C=CCN(CC=C)C(=O)c1cc(C)nc2c1c(=O)n(-c1ccccc1)c(=O)n2CC(O)CN1CCN(c2ncccn2)CC1 (stereo unspecified)
GI50 [1]: > 100 µM
TGI [1]: > 100 µM
GI50 [3]: > 100 µM
TGI [3]: > 100 µM
GI50 [4]: > 100 µM
TGI [4]: > 100 µM
GI50 [5]: > 100 µM
TGI [5]: > 100 µM
GI50 [9]: > 100 µM
TGI [9]: > 100 µM
GI50 [6]: > 100 µM
TGI [6]: > 100 µM
GI50 [7]: > 100 µM
TGI [7]: > 100 µM
GI50 [8]: 17.2 µM
TGI [8]: > 100 µM

CCCCc1ccc(-n2c3nc(=O)n(C)c(=O)c-3nc3ccccc32)cc1
TGI [1]: 19.8 µM
TGI [2]: 14.5 µM
TGI [3]: 32.1 µM
TGI [4]: 32.5 µM
TGI [5]: 20.2 µM
TGI [9]: 23.1 µM
TGI [6]: 57 µM
TGI [7]: 15.5 µM
TGI [8]: 34.1 µM

NC1CCCCC1N.O=S(=O)([O-])CCCN1CCOCC1.O=S(=O)([O-])CCCN1CCOCC1.[Pt+4]
GI50 [1]: 1.32 µM
TGI [1]: 17.1 µM
GI50 [2]: 54.6 µM
TGI [2]: > 100 µM
GI50 [3]: 5.7 µM
TGI [3]: > 100 µM
GI50 [4]: 4.81 µM
TGI [4]: 19.7 µM
GI50 [5]: 4.64 µM
TGI [5]: 20.6 µM
GI50 [9]: 8.17 µM
TGI [9]: > 100 µM
GI50 [6]: 1.05 µM
TGI [6]: > 51.4 µM
GI50 [7]: > 100 µM
TGI [7]: > 100 µM
GI50 [8]: 9.92 µM
TGI [8]: > 100 µM

COC1OC(C)C(O)CC1OS(=O)(=O)c1ccc(C)cc1 (stereo unspecified)
TGI [1]: > 100 µM
TGI [2]: > 100 µM
TGI [3]: > 100 µM
TGI [4]: > 100 µM
TGI [5]: > 100 µM
TGI [9]: > 100 µM
TGI [6]: > 100 µM
TGI [7]: > 100 µM
TGI [8]: > 100 µM

CCOC(=O)C1=C(Nc2ccc(Cl)cc2Cl)OC/C1=N\NS(=O)(=O)c1ccc(C)cc1
TGI [1]: > 100 µM
TGI [2]: > 100 µM
TGI [3]: > 100 µM
TGI [4]: > 100 µM
TGI [5]: > 100 µM
TGI [9]: > 100 µM
TGI [7]: > 100 µM
TGI [8]: > 100 µM

CCCC(C)C[C@@H](C)CC(C)/C=C(\C)c1oc(=O)c(C)c(O)c1C (stereo partly specified) (tested in a mixture with another compound)
TGI [1]: 35.1 µM
TGI [2]: 29.2 µM
TGI [3]: 29.5 µM
TGI [4]: 29.8 µM
TGI [5]: 31.1 µM
TGI [9]: 17.9 µM
TGI [7]: 31.9 µM
TGI [8]: 33.5 µM

Cc1cc(C)nc(NS(=O)(=O)c2ccc(Nc3c4ccc(Cl)cc4nc4c(C(=O)Nc5ccc(S(=O)(=O)N=C(N)N)cc5)cccc34)cc2)n1
TGI [2]: > 100 µM
TGI [3]: > 100 µM
TGI [5]: > 100 µM
TGI [9]: > 100 µM
TGI [6]: > 100 µM
TGI [7]: > 100 µM
TGI [8]: > 100 µM

O=C(Nc1cc[c]([Sb](=[O])([OH])[OH])cc1)c1ccccc1
GI50 [10]: > 100 µM
TGI [10]: > 100 µM
GI50 [1]: > 100 µM
TGI [1]: > 100 µM
GI50 [3]: > 100 µM
TGI [3]: > 100 µM
GI50 [5]: > 100 µM
TGI [5]: > 100 µM
GI50 [9]: > 100 µM
TGI [9]: > 100 µM
GI50 [7]: > 100 µM
TGI [7]: > 100 µM
GI50 [8]: > 100 µM
TGI [8]: > 100 µM

O=C([O][Hg][CH2]C1COCC([CH2][Hg][O]C(=O)c2ccccc2)O1)c1ccccc1 (stereo unspecified)
GI50 [10]: 17.3 µM
TGI [10]: 31.2 µM
GI50 [1]: 1.54 µM
TGI [1]: 3.32 µM
GI50 [2]: 1.45 µM
TGI [2]: 2.85 µM
GI50 [3]: 16.8 µM
TGI [3]: 30.5 µM
GI50 [4]: 3.84 µM
TGI [4]: 13.9 µM
GI50 [9]: 1.91 µM
TGI [9]: 3.71 µM
GI50 [6]: 2.75 µM
TGI [6]: 7.66 µM
GI50 [7]: 19.6 µM
TGI [7]: 37.4 µM
GI50 [8]: 16.6 µM
TGI [8]: 30.7 µM

Cc1cc(N2CCCC2)nc(NC2CCCC(Nc3ccnc4cc(Cl)ccc34)C2)n1 (stereo unspecified)
GI50 [10]: 1.8 µM
TGI [10]: 3.35 µM
GI50 [1]: 1.27 µM
TGI [1]: 3.25 µM
GI50 [2]: 1.99 µM
TGI [2]: 3.76 µM
GI50 [3]: 1.45 µM
TGI [3]: 2.87 µM
GI50 [5]: 1.58 µM
TGI [5]: 3.21 µM
GI50 [9]: 1.27 µM
TGI [9]: 2.79 µM
GI50 [6]: 0.322 µM
TGI [6]: 1.4 µM
GI50 [7]: 1.86 µM
TGI [7]: 5.02 µM
GI50 [8]: 1.19 µM
TGI [8]: 3.46 µM

CCc1nc(N)nc(C(=O)NCCNC(=O)c2nc(N)nc(CC)c2C)c1C
TGI [1]: > 100 µM
TGI [2]: > 100 µM
TGI [3]: > 100 µM
TGI [4]: > 100 µM
TGI [9]: > 100 µM
TGI [6]: > 100 µM
TGI [7]: > 100 µM
TGI [8]: > 100 µM

Nc1ncn(C2C=C(CO)C(O)C2O)c(=O)n1 (stereo unspecified)
TGI [1]: > 100 µM
TGI [2]: > 100 µM
TGI [3]: > 100 µM
TGI [4]: > 100 µM
TGI [5]: > 100 µM
TGI [9]: > 100 µM
TGI [6]: > 100 µM
TGI [7]: > 100 µM
TGI [8]: > 100 µM

COC(=O)C(=O)C(C#N)c1ccc(CC#N)cc1 (stereo unspecified)
TGI [1]: > 100 µM
TGI [2]: > 100 µM
TGI [3]: > 100 µM
TGI [4]: > 100 µM
TGI [5]: > 100 µM
TGI [9]: > 100 µM
TGI [6]: > 100 µM
TGI [7]: > 100 µM
TGI [8]: > 100 µM

O=c1[nH]c2c3ccccc3ccc2c2cc3c(cc12)OCO3
TGI [1]: > 100 µM
TGI [2]: > 100 µM
TGI [3]: > 100 µM
TGI [5]: > 100 µM
TGI [9]: > 100 µM
TGI [6]: > 100 µM
TGI [7]: > 100 µM
TGI [8]: > 100 µM

O=C([CH-]C(=O)c1ccccc1)c1ccccc1.O=C([CH-]C(=O)c1ccccc1)c1ccccc1.O=C([CH-]C(=O)c1ccccc1)c1ccccc1.[OH3+].[Y+3]
GI50 [1]: 5.14 µM
TGI [1]: 22.8 µM
GI50 [2]: 12 µM
TGI [2]: 33.2 µM
GI50 [3]: 4.72 µM
TGI [3]: 21.8 µM
GI50 [4]: 2.4 µM
TGI [4]: 11.5 µM
GI50 [5]: 2.58 µM
TGI [5]: 11.1 µM
GI50 [9]: 6.34 µM
TGI [9]: 21.9 µM
GI50 [6]: 6.04 µM
TGI [6]: 32.2 µM
GI50 [7]: 3.32 µM
TGI [7]: 23.1 µM
GI50 [8]: 4.8 µM
TGI [8]: 31 µM

CCn1c(O)c(C=N)c(=O)n(CC)c1=O
TGI [1]: > 100 µM
TGI [2]: > 100 µM
TGI [3]: > 100 µM
TGI [4]: > 100 µM
TGI [5]: > 100 µM
TGI [9]: > 100 µM
TGI [7]: > 100 µM
TGI [8]: > 100 µM
